{
  "source": "patent US20130261241A1",
  "about": "“METHODS FOR CONTROLLING WATER AMOUNT IN A POLYMER COMPOSITION OR SUBSTRATE” (Bendiner Technologies, LLC, priority 2009, published 2013)",
  "data": [
    {"molecule": "C/C=C/C=C/C(=O)[O-].[K+]", "note": "[Potassium sorbate, potassium sorbate]", "values": [
      {"measurement": "change in zeta potential", "setting": "as potassium sorbate concentration is increased (0.0001% to 10%), no added sodium chloride", "result": "less negative"},
      {"measurement": "effect on the zeta potential", "setting": "concentrations below approximately 0.01%", "result": "no effect"}
    ]}
  ]
}
